pEC50: −log10 of the molar value. Where two headings read alike, the source gives them in different places.
What was measured:
[1] = amide bond, HATU/DIEA
[2] = from CC(C)(C)OC(=O)N[C@H]1CCCN[C@H]1COC1CCC(c2ccccc2CCC(=O)O)CC1; amide bond; 13-membered ring; HATU/DIEA; MeCN; 0.36 mM; 2.0 h
[3] = amide bond, 13-membered ring
[4] = system: Sprague-Dawley rats; assay: Assessment of wake promotion in Sprague-Dawley rats (EEG/EMG); format: in vivo; settings: Rattus norvegicus; PO, 3 mpk, male Sprague-Dawley rats, dosed at ZT5, 6-hour post-dose period; read-out: Mean cortical activation time (% vehicle treatment)
Experimental: Wake promotion was assessed using electroencephalography (EEG) and electromyography (EMG) in adult male Sprague-Dawley rats (350-600 g). All rats (Charles River Laboratories, Raleigh, NC, USA) were intraperitoneally implanted with telemetry devices (F50-EEE, Data Sciences International Inc., M/N, USA) under isoflurane anesthesia. For EEG, stainless steel screws were implanted over frontal cortex and parietal cortex, and reference screws were placed over cerebellum. Additionally, an electrode was placed in neck muscle for EMG. Rats were given carprofen post-surgery and underwent a 7 to 10-day recovery period. Rats habituated to the experimental room for 7 days and were maintained on a 12-hour light-dark cycle.
EEG and EMG data were recorded using the DSI telemetry system and Ponemah software (Data Sciences International Inc., MN, USA). Sleep-wake stages were scored both manually and with Somnivore, a supervised machine learning software platform, in 10 second epocs. Records were visually inspected as needed post-processing.
All test compounds were dissolved in 5% DMSO and suspended in 95% saline with 0.5% methylcellulose and 0.5% tween. […] Unless otherwise indicated, all compounds were dosed orally. Recordings for each rat were initiated immediately after dosing and lasted for 6 hours post-dose.
Two key endpoints include wakefulness time and cortical activation time. Wakefulness time is derived from the sleep-wake stage analysis. Cortical activation time is based on the duration in which frontal gamma oscillatory activity (30-100 Hz), a key feature of wakefulness, was elevated relative to a pre-treatment baseline. Mean cortical activation time was computed relative to vehicle treatment for the 6-hour post-dose period.

[5] = system: MDR1; assay: MDCK-MDR1 permeability assay; format: in vitro ADME; settings: dog; for Papp A→B at 2 h, 3 μM: MDCK-MDR1, MDCK-MDR1 cells, apical to basolateral, 3 μM test compound, 2 hours at 37 degrees C; for efflux ratio at 2 h, 3 μM: MDCK-MDR1, Papp (basolateral to apical) divided by Papp (apical to basolateral), MDCK-MDR1 cells, read-out: Efflux ratio (ER)
Experimental: (§1) The bidirectional permeability (Apical to Basal and Basal to Apical directions) of test compounds in MDCK-MIDR1 cells were evaluated using MDCK-MIDR1 cells seeded in Solvo PreadyPort™ MIDCK 96-well plate. Once the plate was received from ReadyCell (Barcelona, Spain), it was treated as per PreadyPort™ user's manual.
(§2) For the Apical to Basolateral (A→B) permeability, 80 μL of test compound (3 μM) co-dosed with LY (Lucifer Yellow) (100 μM) in HBSS (Hank's Balanced Salt Solution) assay buffer was added to the donor side (A) while 250 μL of HBSS buffer was added to the receiver side (B). For the Basolateral to Apical (B→A) permeability, 255 μL of test compound (3 μM) in HBSS assay buffer was added to the donor side (B) while 75 μL of HBSS buffer containing LY (100 μM) was added to the receiver side (A).
(§3) The plate was placed in an incubator set at 37 degrees C. After 10 minutes of pre-warming, 5 μL aliquot was taken from donor compartment and set aside as the dosing solution. The MDCK-MDR1 incubation plate was placed back into the incubator for 2 hours of incubation at 37 degrees C. After 2 hours of incubation, 25 μL and 5 μL aliquots were removed from the receiver and donor sides, respectively. To the 5 μL aliquots taken from the donor sides (before and after a 2-hour incubation) were diluted with 20 μL of the HBSS buffer. All samples were mixed with 150 μL with acetonitrile containing internal standard (IS) and 200 μL water, and analyzed by LC-MS/MS.
(§4) The apparent permeability (Papp) was calculated using the following formula: Papp=dQ/dt×1/A×C0 where: • dQ/dt: amount of translocated material over incubation time (nmol/s) • A: area of insert (0.14 cm^2 for PreadyPort™ MDR1-96) • C0: initial concentration of product applied in apical (A→B) or basal (B→A) compartment (nmol/mL)
(§5) The efflux ratio (ER) was measured by dividing the Papp (basolateral to apical direction) by Papp (apical to basolateral direction). It is a general measure of the involvement of active processes. An ER>2 is considered positive for active transport.
(§6) The data reported in Table 3 were obtained according to the MDCK-MIDR1 permeability assay described above.

[6] = Hepatocytes stability assay (human hepatocytes); format: in vitro ADME; settings: both sexes, cryopreserved hepatocytes, 1 μM test compound, 1×10^6 cell/mL, 37 degrees C, read-out: CLint (μL/min/million cells)
In short: (§7)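 Cryopreserved pooled (50 donors, mixed gender) human hepatocytes at 1×10^6 cells/mL in Krebs-Henseleit buffer with 1 μM compound (0.1% DMSO), 37 degrees C, sampled 0–240 min. Parent depletion by LC-MS/MS; first-order fit gave T1/2 and CLint, scaled to hepatic clearance via well-stirred model (fu assumed 1); extraction ratio = CL,hep/liver blood flow.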

[7] = system: human hepatocytes; assay: Hepatocytes stability assay (human hepatocytes); format: in vitro ADME; settings: for Extraction Ratio (ER): scaled hepatic clearance divided by liver blood flow, fu assumed unity
In short: as §7

[8] = system: MDCK-MDR1 cells; assay: MDCK-MDR1 permeability assay; format: in vitro ADME; settings: MDCK-MDR1 cells; for Papp A→B (10^−6 cm/s): apical to basolateral, 3 μM test compound, 2 hours at 37 degrees C
Experimental: as §1, §2, §3, §4, §5, §6

[9] = biological target: T1, human orexin-2 receptor (OX2R) (Homo sapiens, UniProt O43614); assay: Human OX2R IP1 assay; format: cell-based; settings: T-Rex CHO cells stably overexpressing human OX2R, IP1 accumulation, 1 hr at 37 degrees C; mean EC50; ∧ = racemic mixture
T1 construct: expressed in transfected cells
T1 sequence (O43614 1-444): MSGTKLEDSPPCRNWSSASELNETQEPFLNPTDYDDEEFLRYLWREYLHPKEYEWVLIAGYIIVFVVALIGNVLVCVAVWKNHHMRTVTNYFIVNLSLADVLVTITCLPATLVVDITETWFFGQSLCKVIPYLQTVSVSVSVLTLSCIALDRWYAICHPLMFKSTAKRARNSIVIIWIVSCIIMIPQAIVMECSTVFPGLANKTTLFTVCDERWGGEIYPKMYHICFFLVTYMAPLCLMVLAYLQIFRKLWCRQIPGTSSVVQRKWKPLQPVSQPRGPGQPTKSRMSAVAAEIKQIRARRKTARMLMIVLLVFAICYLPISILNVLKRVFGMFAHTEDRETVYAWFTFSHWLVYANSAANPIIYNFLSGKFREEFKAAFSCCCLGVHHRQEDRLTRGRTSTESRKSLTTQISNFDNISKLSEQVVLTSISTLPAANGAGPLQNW
Experimental: T-Rex CHO cells stably overexpressing the human orexin-2 receptor (OX2R) were induced overnight with 1 μg/mL of doxycycline in a T225 flask. 24 hours post induction, cells were lifted with accutase and plated into a 384-well proxy plate at 30,000 cells/well. Cells were then treated with different test compounds in 1× stimulation buffer containing 10 mM Hepes, 1 mM CaCl2), 0.5 mM MgCl2, 4.2 mM KCl, 146 mM NaCl, 5.5 mM glucose, and 50 mM LiCl, pH 7.4, for 1 hr at 37 degrees C. Following incubation, the reaction was terminated by the addition of detection mix, which is composed of IP1-d2 and anti-IP1-cryptate diluted in lysis buffer as well as 1× stimulation buffer. The plates were allowed to incubate for 1 hour at room temperature and were then read in the EnVision® multimode plate reader, measuring inositol phosphate levels.
Cisbio IP1 is a cell-based functional assay quantifying the accumulation of inositol monophosphate (IP), a metabolite released as a result of orexin 2 receptor activation through the phospholipase C-Gq signaling pathway. This is a competitive immunoassay in which the IP1 produced by the cells upon receptor activation competes with the IP1 analog coupled to the d2 fluorophore (acceptor) for binding to an anti-IP1 monoclonal antibody labeled with Eu cryptate (donor). The measured HTRF-FRET based signal is inversely proportional to the IP1 concentration produced.
The EC50 values reported in Table 2 were obtained according to the human OX2R IP1 assay described above. Data are the mean EC50 values ±S.E.M. The compound methyl (2R,3S)-3-((methylsulfonyl)amino)-2-(((cis-4-phenylcyclohexyl)oxy)methyl)-piperidine-1-carboxylate is a reference compound which is disclosed in Example 5 of PCT publication no. WO2017/135306.

Row | Compound | Papp A→B at 2 h, 3 μM [5] | efflux ratio at 2 h, 3 μM [5] | hepatocyte CLint at 1 μM [6] | Extraction Ratio (ER) [7] | response vs control in vivo at 3 mg/kg [4] | further results
1 | CC(C)(C)OC(=O)N[C@H]1CCCN2C(=O)CCOc3ccccc3C3CCC(CC3)OC[C@@H]12 | – | – | – | – | – | ring closure, yield after HPLC ([1]; from CC(C)(C)OC(=O)N[C@H]1CCCN[C@H]1COC1CCC(c2ccccc2OCCC(=O)O)CC1, 14-membered ring, MeCN, 7.4 mM, 18.0 h): 80.3%
2 | CC(C)(C)OC(=O)N[C@H]1CCCN2C(=O)CCc3ccccc3C3CCC(CC3)OC[C@@H]12 | – | – | – | – | – | ring closure, yield after HPLC ([1]; from CC(C)(C)OC(=O)N[C@H]1CCCN[C@H]1COC1CCC(c2ccccc2CCC(=O)O)CC1, 13-membered ring, MeCN, 0.36 mM, 2.0 h): 19%; ring closure, conversion [2]: 40%
3 | CC(C)(C)OC(=O)N[C@H]1CCCN2C(=O)COc3nccnc3C3CCC(CC3)OC[C@@H]12 | – | – | – | – | – | ring closure, isolated yield ([3]; from CC(C)(C)OC(=O)N[C@H]1CCCN[C@H]1COC1CCC(c2nccnc2OCC(=O)O)CC1, HATU/DIEA, MeCN, 2.16 mM, 1.0 h): 42.1%
4 | CC(C)(C)OC(=O)N[C@H]1CCCN2C(=O)COc3nnccc3C3CCC(CC3)OC[C@@H]12 | – | – | – | – | – | ring closure, isolated yield ([3]; from CC(C)(C)OC(=O)N[C@H]1CCCN[C@H]1COC1CCC(c2ccnnc2OCC(=O)O)CC1, HATU/DIEA, MeCN, 0.94 mM, 25.0 °C, 2.0 h): 76%
5 | COc1ccc(CNC2CCN3C(=O)C(F)(F)Oc4c(F)cc(F)cc4C4CCC(CC4)OCC23)cc1 (stereo not shown) | – | – | – | – | – | ring closure, isolated yield ([3]; from COc1ccc(CNC2CCNC2COC2CCC(c3cc(F)cc(F)c3OC(F)(F)C(=O)O)CC2)cc1, HATU/diisopropylamine, DCM/MeCN 1:1, 18.5 mM, 3.0 h): 39.3%
6 | CS(=O)(=O)N[C@H]1CCN2C(=O)COc3ccccc3C3CCC(CC3)OCC12 (stereo partly shown) [Compound 7] | 14 ×10⁻⁶ cm/s | 2.2 | 24 µL/min/1e6 cells | 0.78 | 165% | –
7 | CS(=O)(=O)N[C@H]1CCCN2C(=O)COc3c(F)cc(F)cc3C3CCC(CC3)OCC12 (stereo partly shown) [Compound 12] | 2.3 ×10⁻⁶ cm/s | 6.2 | 13 µL/min/1e6 cells | 0.66 | 236% | –
8 | tert-butyl ((2^1S,2^4S,5^2R,5^3S)-6-oxo-3,11-dioxa-5(2,1)-piperidina-1(1,2)-benzena-2(1,4)-cyclohexanacycloundecaphane-5^3-yl)carbamate | – | – | – | – | – | ring closure, yield after HPLC ([1]; 16-membered ring, DMF/MeCN 1:2, 16.3 mM, 25.0 °C): 88.1%

The next lines start with results.

Row | Papp A→B at 2 h, 3 μM [5] | efflux ratio at 2 h, 3 μM [5] | hepatocyte CLint at 1 μM [6] | Extraction Ratio (ER) [7] | Compound | response vs control in vivo at 3 mg/kg [4] | further results
9 | 0.89 ×10⁻⁶ cm/s | 39 | 13 µL/min/1e6 cells | 0.67 | CS(=O)(=O)N[C@H]1CCCN2C(=O)COc3ccccc3C3CCC(CC3)OCC12 (stereo partly shown) [Compound 2] | 190% | –
10 | 0.31 ×10⁻⁶ cm/s | 58 | 6.9 µL/min/1e6 cells | 0.51 | CS(=O)(=O)N[C@H]1CCCN2C(=O)COc3ncccc3C3CCC(CC3)OCC12 (stereo partly shown) [Compound 46] | 157% | –
11 | 0.59 ×10⁻⁶ cm/s | 21 | 4.6 µL/min/1e6 cells | 0.41 | CS(=O)(=O)N[C@H]1CCCN2C(=O)COc3ccc(Cl)cc3C3CCC(CC3)OCC12 (stereo partly shown) [Compound 51] | 166% | –
12 | 0.092 ×10⁻⁶ cm/s | 77 | < 1.9 µL/min/1e6 cells | <0.22 | CS(=O)(=O)N[C@H]1CCCN2C(=O)COc3nccnc3C3CCC(CC3)OCC12 (stereo partly shown) [Compound 55] | 145% | –
13 | – | 5.2 | < 1.9 µL/min/1e6 cells | <0.22 | CS(=O)(=O)N[C@H]1CCCN2C(=O)COc3nnccc3C3CCC(CC3)OCC12 (stereo partly shown) [Compound 56] | – | Papp A→B (10^−6 cm/s) [8]: 0.13 10^−6 cm/s
14 | – | – | – | <0.22 | CS(=O)(=O)N[C@H]1CCCN2C(=O)COc3nnccc3[C@H]3CC[C@H](CC3)OC[C@@H]12 [Compound 66] | – | pEC50 [9]: > 7.00; Papp A→B (10^−6 cm/s) [8]: <0.047 10^−6 cm/s; Efflux ratio (ER) ([8]; Papp (basolateral to apical) divided by Papp (apical to basolateral), 3 μM): >9.5; CLint (μL/min/million cells) ([7]; 1 μM test compound, 1×10^6 cell/mL, 37 degrees C): <1.9 μL/min/million cells

— patent publication US12054495B2, “Substituted macrocyclic compounds and related methods of treatment” (Alkermes, Inc., priority 2019, dated 2024)
